The target in this experiment is OTU domain-containing protein 3 (Homo sapiens) (UniProt Q5T2D3). The experiment in a line: Validation of screening hits, potency titration, in vitro enzymatic, OTU domain-containing protein 3 DUB inhibitors (AID 1645868). The note with it: purified OTUD3, ubiquitin-rhodamine cleavage fluorescence, 2 h.

This passage reports IC50 results from PubChem BioAssay AID1645868 (Buhrlage Lab, Dana-Farber Cancer Institute and Novartis …, 2021).

The source made the active and inactive calls.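 The calls were made as follows: active = maximal percent inhibition of the deubiquitinase OTUD3 of at least 30% across the tested doses; inactive = the rest.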 A value given as a limit tells only on which side of the number the result lay.

OTU domain-containing protein 3 (Homo sapiens), sequence (Q5T2D3 whole entry, looked up, the tested form may be a part): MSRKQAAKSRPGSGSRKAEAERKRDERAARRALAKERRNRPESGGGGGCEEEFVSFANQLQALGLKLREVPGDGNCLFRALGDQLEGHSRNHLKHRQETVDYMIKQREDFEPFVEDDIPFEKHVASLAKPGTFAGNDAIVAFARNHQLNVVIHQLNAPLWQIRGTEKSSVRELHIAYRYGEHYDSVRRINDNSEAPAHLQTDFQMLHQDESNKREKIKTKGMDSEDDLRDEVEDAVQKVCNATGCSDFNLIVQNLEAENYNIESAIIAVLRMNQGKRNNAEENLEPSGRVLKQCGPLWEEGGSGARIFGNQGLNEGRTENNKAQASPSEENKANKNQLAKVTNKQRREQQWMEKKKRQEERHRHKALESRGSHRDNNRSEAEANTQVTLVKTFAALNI

`O=C1Oc2nc3ccccc3cc2CN1Cc1ccco1`: the IC50 was 34.4 µM.
Next, `CSc1nc2ncn(CC(=O)Nc3cccc(Cl)c3)c(=O)c2s1`: > 50 µM (inactive); `O=C(O)c1ccccc1C(=O)Nc1ccc(SC(C(=O)Nc2cccc(Cl)c2)c2ccccc2)cc1` (centres undefined): 33.6 µM.
With `COc1ccc(C(C(=O)NCc2ccccc2)N(C(=O)CCN2CCc3ccccc32)c2ccc(C)c(C)c2)cc1` (centres undefined), the IC50 was > 50 µM (inactive).
On to `O=C(Cc1noc2ccccc12)N1CCN(c2ccc([N+](=O)[O-])cc2)CC1`, for which the IC50 was > 50 µM (inactive).
For `O=C(Nc1cc(F)c2nc(N3CCOCC3)ccc2c1)c1ccc(Br)o1`, the IC50 is > 50 µM (inactive).
Next, `O=C(Nc1oc2ccccc2c(=O)c1-c1ccc2c(c1)OCO2)C1CCCCC1`: > 50 µM (inactive); `Cc1cc(N2CCC(NC(=O)NCc3ccc(F)cc3)C2=O)ccc1F` (centres undefined): 30.4 µM; `CC(=O)c1cc2c(=O)c3c(C(=O)O)c(O)c(O)cc3oc2c(C(C)=O)c1-c1coc2cc(O)c(O)c(C(=O)O)c2c1=O`: 0.369 µM.
Consider `O=C(Cn1ncc2c(N3CCCCCC3)ncnc21)NCc1ccccc1`, for which the IC50 was > 50 µM (inactive).
Next, `CCOc1ccc(NC(=O)c2nc3c(=O)[nH]c4cc(C)ccc4n3n2)cc1`: > 50 µM (inactive); `COc1ccccc1CNC(=O)c1ccc(CSc2nc3ccncc3n2Cc2ccccc2)cc1`: > 50 µM (inactive); `COc1cccc2c1OCC(NS(=O)(=O)c1cc(C)ccc1C)C2` (centres undefined): > 50 µM (inactive).
For the compound `O=C1C=C(O)c2c(O)cccc2C1=O`, the IC50 was 25.5 µM.
On to `O=c1c2c(ccn1Cc1cc(F)ccc1F)ccn2Cc1cccnc1`, for which the IC50 is > 50 µM (inactive).
Take `O=C(Nc1cc(F)c2nc(N3CCCC3)ccc2c1)c1ccco1`: the IC50 was > 50 µM (inactive).
Turning to `C[C@H](NC(=O)Cc1ccccc1F)c1nc2cc(-c3ccccc3F)ncn2n1`, the IC50 was > 50 µM (inactive).
Regarding `Cc1ccc2c(=O)c3c([nH]c2c1C)CCN(CC(=O)NCc1ccc2c(c1)OCO2)C3`, the IC50 is > 50 µM (inactive).
Next, `CCOC(=O)c1ccc(NC(=O)c2cnc(N3CCOCC3)nc2)cc1`: > 50 µM (inactive); `Cc1cc2nc(/C=C/c3ccccc3)n(Cc3cccc(F)c3)c2cc1C`: > 50 µM (inactive); `Cc1cccc(N2C(=O)/C(=C\c3ccc4c(c3)OCCO4)c3ccccc3C2=O)c1`: > 50 µM (inactive).
Next, `CC(NC(=O)c1ccccc1)c1nc2ccccc2n1CC(=O)Nc1ccc2c(c1)OCO2` (centres undefined): 3.53 µM; `CCOc1ccccc1-c1nc(-c2nnn(Cc3ccccc3)c2C)no1`: > 50 µM (inactive); `Cc1ccc(CNC(=O)Cn2c(=O)n(-c3ccccc3)c3ncccc32)cc1`: > 50 µM (inactive).
In the case of `CC(C)(C)n1ncc2c(=O)n(Cc3cccc([N+](=O)[O-])c3)cnc21`, the IC50 is > 50 µM (inactive).
In the case of `CCC(=O)Nc1nc2cc(NC(=O)Nc3cc(C)cc(C)c3)ccc2s1`, the IC50 was 7.84 µM.
Next, `Cc1ccc(NC(=O)CSc2nc3c(cc2C#N)C(=O)CCC3)cc1`: 30.2 µM; `O=C(Nc1ccc(F)cc1F)c1csc(-c2ccccc2)n1`: 34.7 µM; `COc1ccc(COC(=O)C2=C(C)NC(=O)CC2c2cccc([N+](=O)[O-])c2)cc1` (centres undefined): > 50 µM (inactive).
